Test results reported in the supplement of paper PMC10307832.

Tests used:
Experiment in all cases: relative viability (nuclei count vs DMSO), 5 days (fraction); higher = more cells survive
Alisertib + Tozasertib = compound: COc1cc(Nc2ncc3c(n2)-c2ccc(Cl)cc2C(c2c(F)cccc2OC)=NC3)ccc1C(=O)O [Alisertib] + Cc1cc(Nc2cc(N3CCN(C)CC3)nc(Sc3ccc(NC(=O)C4CC4)cc3)n2)n[nH]1 [Tozasertib] (partner 0.1 µM)
Method in brief: (§1)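 Medians of duplicate plates are given as relative viability. That measure is the nuclei count in treated wells divided by the count in vehicle wells. Counts were taken on 4× images of lung cancer cell lines in 1536-well plates, 5 days after pin-tool dosing the day after seeding with one drug alone or a fixed anchor-drug dose plus five library-drug doses (not always all listed) in √10 steps.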

Alisertib + Dasatinib = compound: COc1cc(Nc2ncc3c(n2)-c2ccc(Cl)cc2C(c2c(F)cccc2OC)=NC3)ccc1C(=O)O [Alisertib] + Cc1nc(Nc2ncc(C(=O)Nc3c(C)cccc3Cl)s2)cc(N2CCN(CCO)CC2)n1 [Dasatinib] (partner 0.075 µM)
Method in brief: as §1

Alisertib + Luminespib = compound: COc1cc(Nc2ncc3c(n2)-c2ccc(Cl)cc2C(c2c(F)cccc2OC)=NC3)ccc1C(=O)O [Alisertib] + CCNC(=O)c1noc(-c2cc(C(C)C)c(O)cc2O)c1-c1ccc(CN2CCOCC2)cc1 [Luminespib] (partner 0.01 µM)
Method in brief: as §1

Alisertib + Phenformin = compound: COc1cc(Nc2ncc3c(n2)-c2ccc(Cl)cc2C(c2c(F)cccc2OC)=NC3)ccc1C(=O)O [Alisertib] + N=C(N)NC(=N)NCCc1ccccc1 [Phenformin] (partner 250 µM)
Method in brief: as §1

Alisertib + OSI-027 = compound: COc1cc(Nc2ncc3c(n2)-c2ccc(Cl)cc2C(c2c(F)cccc2OC)=NC3)ccc1C(=O)O [Alisertib] + COc1cccc2cc(-c3nc([C@H]4CC[C@H](C(=O)O)CC4)n4ncnc(N)c34)[nH]c12 [OSI-027] (partner 0.5 µM)
Method in brief: as §1

Alisertib + Foretinib = compound: COc1cc(Nc2ncc3c(n2)-c2ccc(Cl)cc2C(c2c(F)cccc2OC)=NC3)ccc1C(=O)O [Alisertib] + COc1cc2c(Oc3ccc(NC(=O)C4(C(=O)Nc5ccc(F)cc5)CC4)cc3F)ccnc2cc1OCCCN1CCOCC1 [Foretinib] (partner 0.25 µM)
Method in brief: as §1

Alisertib = compound: COc1cc(Nc2ncc3c(n2)-c2ccc(Cl)cc2C(c2c(F)cccc2OC)=NC3)ccc1C(=O)O [Alisertib]
Method in brief: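 In 1536-well plates, lung cancer cell lines rested overnight at 37 °C before five library-drug doses (not always all listed), √10 apart, were pinned onto vehicle-anchored plates. Nuclei were counted with MetaXpress from 4× Hoechst images taken after 5 days without medium change. Viability compares treated-well with vehicle-well nuclei as a median over plates, and plates needed control CV below 25% plus at least one doubling to pass.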

Alisertib + Vorinostat = compound: COc1cc(Nc2ncc3c(n2)-c2ccc(Cl)cc2C(c2c(F)cccc2OC)=NC3)ccc1C(=O)O [Alisertib] + O=C(CCCCCCC(=O)Nc1ccccc1)NO [Vorinostat] (partner 1 µM)
Method in brief: as §1

Alisertib + Pemetrexed = compound: COc1cc(Nc2ncc3c(n2)-c2ccc(Cl)cc2C(c2c(F)cccc2OC)=NC3)ccc1C(=O)O [Alisertib] + Nc1nc2[nH]cc(CCc3ccc(C(=O)N[C@@H](CCC(=O)O)C(=O)O)cc3)c2c(=O)[nH]1 [Pemetrexed] (partner 0.2 µM)
Method in brief: as §1

Alisertib + AZD7762 = compound: COc1cc(Nc2ncc3c(n2)-c2ccc(Cl)cc2C(c2c(F)cccc2OC)=NC3)ccc1C(=O)O [Alisertib] + NC(=O)Nc1cc(-c2cccc(F)c2)sc1C(=O)N[C@H]1CCCNC1 [AZD7762] (partner 0.2 µM)
Method in brief: as §1

Alisertib + Trametinib = compound: COc1cc(Nc2ncc3c(n2)-c2ccc(Cl)cc2C(c2c(F)cccc2OC)=NC3)ccc1C(=O)O [Alisertib] + CC(=O)Nc1cccc(-n2c(=O)n(C3CC3)c(=O)c3c(Nc4ccc(I)cc4F)n(C)c(=O)c(C)c32)c1 [Trametinib] (partner 0.02 µM)
Method in brief: as §1

Alisertib + Decitabine = compound: COc1cc(Nc2ncc3c(n2)-c2ccc(Cl)cc2C(c2c(F)cccc2OC)=NC3)ccc1C(=O)O [Alisertib] + Nc1ncn([C@H]2C[C@H](O)[C@@H](CO)O2)c(=O)n1 [Decitabine] (partner 2 µM)
Method in brief: as §1

Alisertib + Olaparib = compound: COc1cc(Nc2ncc3c(n2)-c2ccc(Cl)cc2C(c2c(F)cccc2OC)=NC3)ccc1C(=O)O [Alisertib] + O=C(c1cc(Cc2n[nH]c(=O)c3ccccc23)ccc1F)N1CCN(C(=O)C2CC2)CC1 [Olaparib] (partner 8 µM)
Method in brief: as §1

Alisertib + Palbociclib = compound: COc1cc(Nc2ncc3c(n2)-c2ccc(Cl)cc2C(c2c(F)cccc2OC)=NC3)ccc1C(=O)O [Alisertib] + CC(=O)c1c(C)c2cnc(Nc3ccc(N4CCNCC4)cn3)nc2n(C2CCCC2)c1=O [Palbociclib] (partner 0.5 µM)
Method in brief: as §1

NCI-H1623 was tested, and the relative viability (Alisertib + Tozasertib; first compound 0.005 µM) was 0.37, the relative viability (Alisertib + Tozasertib; first compound 0.01581 µM) was 0.398 and the relative viability (Alisertib + Tozasertib; first compound 0.05 µM) was 0.424. The relative viability (Alisertib + Tozasertib; first compound 0.1581 µM) was 0.386, the relative viability (Alisertib + Tozasertib; first compound 0.5 µM) was 0.425 and the relative viability (Alisertib + Dasatinib; first compound 0.005 µM) was 0.587. It also gave a relative viability (Alisertib + Dasatinib; first compound 0.01581 µM) of 0.647, a relative viability (Alisertib + Dasatinib; first compound 0.05 µM) of 0.573 and a relative viability (Alisertib + Dasatinib; first compound 0.1581 µM) of 0.344. For the same cell line, the relative viability (Alisertib + Dasatinib; first compound 0.5 µM) was 0.337, the relative viability (Alisertib + Luminespib; first compound 0.005 µM) was 0.499 and the relative viability (Alisertib + Luminespib; first compound 0.01581 µM) was 0.496. The relative viability (Alisertib + Luminespib; first compound 0.05 µM) was 0.385, the relative viability (Alisertib + Luminespib; first compound 0.1581 µM) was 0.33 and the relative viability (Alisertib + Luminespib; first compound 0.5 µM) was 0.379. The relative viability (Alisertib + Phenformin; first compound 0.005 µM) was 0.619, the relative viability (Alisertib + Phenformin; first compound 0.01581 µM) was 0.592 and the relative viability (Alisertib + Phenformin; first compound 0.05 µM) was 0.501. The relative viability (Alisertib + Phenformin; first compound 0.1581 µM) was 0.382, the relative viability (Alisertib + Phenformin; first compound 0.5 µM) was 0.337 and the relative viability (Alisertib + OSI-027; first compound 0.005 µM) was 0.439. It also gave a relative viability (Alisertib + OSI-027; first compound 0.01581 µM) of 0.439, a relative viability (Alisertib + OSI-027; first compound 0.05 µM) of 0.398 and a relative viability (Alisertib + OSI-027; first compound 0.1581 µM) of 0.295. For the same cell line, the relative viability (Alisertib + OSI-027; first compound 0.5 µM) was 0.309, the relative viability (Alisertib + Foretinib; first compound 0.005 µM) was 0.884 and the relative viability (Alisertib + Foretinib; first compound 0.01581 µM) was 0.848. It also gave a relative viability (Alisertib + Foretinib; first compound 0.05 µM) of 0.569, a relative viability (Alisertib + Foretinib; first compound 0.1581 µM) of 0.425 and a relative viability (Alisertib + Foretinib; first compound 0.5 µM) of 0.424. The relative viability (Alisertib; 0.005 µM) was 0.841, the relative viability (Alisertib; 0.01581 µM) was 0.856 and the relative viability (Alisertib; 0.05 µM) was 0.656. The relative viability (Alisertib; 0.1581 µM) was 0.4 and the relative viability (Alisertib; 0.5 µM) was 0.395.
Cell Line NCI-H2342 has a relative viability (Alisertib + Vorinostat; first compound 0.005 µM) of 0.65, a relative viability (Alisertib + Vorinostat; first compound 0.01581 µM) of 0.662 and a relative viability (Alisertib + Vorinostat; first compound 0.05 µM) of 0.61. The relative viability (Alisertib + Vorinostat; first compound 0.1581 µM) was 0.464, the relative viability (Alisertib + Vorinostat; first compound 0.5 µM) was 0.397 and the relative viability (Alisertib + Tozasertib; first compound 0.005 µM) was 0.623. For the same cell line, the relative viability (Alisertib + Tozasertib; first compound 0.01581 µM) was 0.424, the relative viability (Alisertib + Tozasertib; first compound 0.05 µM) was 0.335 and the relative viability (Alisertib + Tozasertib; first compound 0.1581 µM) was 0.377. The relative viability (Alisertib + Tozasertib; first compound 0.5 µM) was 0.351, the relative viability (Alisertib + Pemetrexed; first compound 0.005 µM) was 0.774 and the relative viability (Alisertib + Pemetrexed; first compound 0.01581 µM) was 0.75. For the same cell line, the relative viability (Alisertib + Pemetrexed; first compound 0.05 µM) was 0.57, the relative viability (Alisertib + Pemetrexed; first compound 0.1581 µM) was 0.542 and the relative viability (Alisertib + Pemetrexed; first compound 0.5 µM) was 0.418. The relative viability (Alisertib + AZD7762; first compound 0.005 µM) was 0.565, the relative viability (Alisertib + AZD7762; first compound 0.01581 µM) was 0.43 and the relative viability (Alisertib + AZD7762; first compound 0.05 µM) was 0.347. The relative viability (Alisertib + AZD7762; first compound 0.1581 µM) was 0.352, the relative viability (Alisertib + AZD7762; first compound 0.5 µM) was 0.414 and the relative viability (Alisertib + Trametinib; first compound 0.005 µM) was 0.758. It also gave a relative viability (Alisertib + Trametinib; first compound 0.01581 µM) of 0.809, a relative viability (Alisertib + Trametinib; first compound 0.05 µM) of 0.483 and a relative viability (Alisertib + Trametinib; first compound 0.1581 µM) of 0.481. It also gave a relative viability (Alisertib + Trametinib; first compound 0.5 µM) of 0.443, a relative viability (Alisertib + Decitabine; first compound 0.005 µM) of 0.673 and a relative viability (Alisertib + Decitabine; first compound 0.01581 µM) of 0.639. It also gave a relative viability (Alisertib + Decitabine; first compound 0.05 µM) of 0.452, a relative viability (Alisertib + Decitabine; first compound 0.1581 µM) of 0.441 and a relative viability (Alisertib + Decitabine; first compound 0.5 µM) of 0.431. For the same cell line, the relative viability (Alisertib + Dasatinib; first compound 0.005 µM) was 0.291, the relative viability (Alisertib + Dasatinib; first compound 0.01581 µM) was 0.348 and the relative viability (Alisertib + Dasatinib; first compound 0.05 µM) was 0.266. It also gave a relative viability (Alisertib + Dasatinib; first compound 0.1581 µM) of 0.268, a relative viability (Alisertib + Dasatinib; first compound 0.5 µM) of 0.276 and a relative viability (Alisertib + Luminespib; first compound 0.005 µM) of 0.646. The relative viability (Alisertib + Luminespib; first compound 0.01581 µM) was 0.662, the relative viability (Alisertib + Luminespib; first compound 0.05 µM) was 0.555 and the relative viability (Alisertib + Luminespib; first compound 0.1581 µM) was 0.447. It also gave a relative viability (Alisertib + Luminespib; first compound 0.5 µM) of 0.368, a relative viability (Alisertib + Phenformin; first compound 0.005 µM) of 0.552 and a relative viability (Alisertib + Phenformin; first compound 0.01581 µM) of 0.551. It also gave a relative viability (Alisertib + Phenformin; first compound 0.05 µM) of 0.581, a relative viability (Alisertib + Phenformin; first compound 0.1581 µM) of 0.41 and a relative viability (Alisertib + Phenformin; first compound 0.5 µM) of 0.362. For the same cell line, the relative viability (Alisertib + Olaparib; first compound 0.005 µM) was 0.463, the relative viability (Alisertib + Olaparib; first compound 0.01581 µM) was 0.475 and the relative viability (Alisertib + Olaparib; first compound 0.05 µM) was 0.298. It also gave a relative viability (Alisertib + Olaparib; first compound 0.1581 µM) of 0.33, a relative viability (Alisertib + Olaparib; first compound 0.5 µM) of 0.349 and a relative viability (Alisertib + OSI-027; first compound 0.005 µM) of 0.529. It also gave a relative viability (Alisertib + OSI-027; first compound 0.01581 µM) of 0.643, a relative viability (Alisertib + OSI-027; first compound 0.05 µM) of 0.589 and a relative viability (Alisertib + OSI-027; first compound 0.1581 µM) of 0.468. For the same cell line, the relative viability (Alisertib + OSI-027; first compound 0.5 µM) was 0.383, the relative viability (Alisertib + Palbociclib; first compound 0.005 µM) was 0.539 and the relative viability (Alisertib + Palbociclib; first compound 0.01581 µM) was 0.533. It also gave a relative viability (Alisertib + Palbociclib; first compound 0.05 µM) of 0.509, a relative viability (Alisertib + Palbociclib; first compound 0.1581 µM) of 0.348 and a relative viability (Alisertib + Palbociclib; first compound 0.5 µM) of 0.415. For the same cell line, the relative viability (Alisertib + Foretinib; first compound 0.005 µM) was 1.04, the relative viability (Alisertib + Foretinib; first compound 0.01581 µM) was 1.09 and the relative viability (Alisertib + Foretinib; first compound 0.05 µM) was 0.652. It also gave a relative viability (Alisertib + Foretinib; first compound 0.1581 µM) of 0.464, a relative viability (Alisertib + Foretinib; first compound 0.5 µM) of 0.363 and a relative viability (Alisertib; 0.005 µM) of 0.812. It also gave a relative viability (Alisertib; 0.01581 µM) of 0.978, a relative viability (Alisertib; 0.05 µM) of 0.776 and a relative viability (Alisertib; 0.1581 µM) of 0.551. For the same cell line, the relative viability (Alisertib; 0.5 µM) was 0.42.
